In PMC10382584, “Macrocyclization of linear molecules by deep learning to facilitate macrocyclic drug candidates discovery” (Nature Communications, 2023):

Tests used:
Assay in all cases: biochemical
Parameters in all cases: DiscoveRx KINOMEscan competition binding, percent of DMSO control signal at 100 nM
Conditions in all cases: read-out: Fig. 4a / Percent Control / Compound 1; percent of DMSO control, competition binding
CDC2L1 = target: T1, CDC2L1 (Homo sapiens, UniProt P21127)
T1 construct: gene CDK11B

MAPKAPK2 = MAPKAPK2 (Homo sapiens, UniProt P49137)
CLK4 = CLK4 (Homo sapiens, UniProt Q9HAZ1)
MEK6 = target: T2, MEK6 (Homo sapiens, UniProt P52564)
T2 construct: gene MAP2K6
T2 sequence (P52564 whole entry): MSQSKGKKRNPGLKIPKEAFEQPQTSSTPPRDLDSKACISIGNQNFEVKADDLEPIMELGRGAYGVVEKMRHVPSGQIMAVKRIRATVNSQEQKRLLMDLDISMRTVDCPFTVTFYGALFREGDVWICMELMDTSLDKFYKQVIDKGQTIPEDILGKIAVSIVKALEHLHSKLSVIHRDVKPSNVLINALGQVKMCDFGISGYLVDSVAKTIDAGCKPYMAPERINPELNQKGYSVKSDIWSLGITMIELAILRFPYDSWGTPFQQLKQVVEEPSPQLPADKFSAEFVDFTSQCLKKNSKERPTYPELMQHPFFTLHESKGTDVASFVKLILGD

LIMK1 = LIMK1 (Homo sapiens, UniProt P53667)
AKT1 = AKT1 (Homo sapiens, UniProt P31749)
BMPR2 = BMPR2 (Homo sapiens, UniProt Q13873)
CSF1R = CSF1R (Homo sapiens, UniProt P07333)
Chain of CSF1R (P07333 whole entry): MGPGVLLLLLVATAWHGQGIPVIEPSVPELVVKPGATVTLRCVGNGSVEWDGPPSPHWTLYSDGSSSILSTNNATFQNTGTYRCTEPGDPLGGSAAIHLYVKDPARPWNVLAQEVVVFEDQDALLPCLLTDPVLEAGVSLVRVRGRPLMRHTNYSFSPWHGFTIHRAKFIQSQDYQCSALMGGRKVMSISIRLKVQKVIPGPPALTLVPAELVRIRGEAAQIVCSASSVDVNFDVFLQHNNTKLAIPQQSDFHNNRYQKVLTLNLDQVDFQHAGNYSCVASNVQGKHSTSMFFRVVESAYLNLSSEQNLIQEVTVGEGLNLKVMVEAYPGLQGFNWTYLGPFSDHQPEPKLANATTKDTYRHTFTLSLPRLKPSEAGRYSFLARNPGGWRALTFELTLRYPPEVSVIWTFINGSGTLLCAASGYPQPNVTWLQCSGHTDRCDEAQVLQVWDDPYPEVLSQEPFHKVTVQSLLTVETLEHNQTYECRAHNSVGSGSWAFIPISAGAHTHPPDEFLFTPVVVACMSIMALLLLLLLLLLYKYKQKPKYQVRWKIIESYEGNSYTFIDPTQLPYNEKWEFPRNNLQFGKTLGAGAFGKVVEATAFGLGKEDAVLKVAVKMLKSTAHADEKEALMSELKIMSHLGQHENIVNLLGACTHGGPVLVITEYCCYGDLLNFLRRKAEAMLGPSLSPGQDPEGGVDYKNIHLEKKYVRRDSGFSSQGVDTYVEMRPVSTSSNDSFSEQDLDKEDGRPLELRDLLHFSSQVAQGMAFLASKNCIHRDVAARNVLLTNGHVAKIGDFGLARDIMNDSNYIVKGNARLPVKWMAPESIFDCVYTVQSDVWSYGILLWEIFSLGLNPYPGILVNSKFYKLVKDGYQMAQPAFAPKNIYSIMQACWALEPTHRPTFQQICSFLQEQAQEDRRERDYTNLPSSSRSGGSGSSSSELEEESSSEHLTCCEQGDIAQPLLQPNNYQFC

MAP3K3 = MAP3K3 (Homo sapiens, UniProt Q99759)
Chain of MAP3K3 (Q99759 whole entry): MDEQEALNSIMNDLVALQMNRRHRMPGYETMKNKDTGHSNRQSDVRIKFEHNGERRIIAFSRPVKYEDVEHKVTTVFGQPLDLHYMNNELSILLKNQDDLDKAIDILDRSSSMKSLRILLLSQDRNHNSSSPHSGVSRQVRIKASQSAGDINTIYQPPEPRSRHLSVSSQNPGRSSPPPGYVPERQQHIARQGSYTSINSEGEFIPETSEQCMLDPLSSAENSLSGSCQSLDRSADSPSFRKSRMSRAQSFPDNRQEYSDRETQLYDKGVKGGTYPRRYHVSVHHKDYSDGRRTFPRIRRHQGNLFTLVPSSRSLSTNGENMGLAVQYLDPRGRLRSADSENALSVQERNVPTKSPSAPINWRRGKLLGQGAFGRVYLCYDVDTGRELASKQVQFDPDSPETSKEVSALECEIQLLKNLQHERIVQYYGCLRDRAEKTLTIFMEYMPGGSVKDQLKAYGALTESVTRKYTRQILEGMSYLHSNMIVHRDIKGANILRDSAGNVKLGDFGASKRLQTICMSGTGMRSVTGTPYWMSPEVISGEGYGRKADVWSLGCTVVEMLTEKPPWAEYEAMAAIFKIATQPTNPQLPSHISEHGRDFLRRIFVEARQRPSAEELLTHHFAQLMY

ACVR1 = ACVR1 (Homo sapiens, UniProt Q04771)
Chain of ACVR1 (Q04771 whole entry): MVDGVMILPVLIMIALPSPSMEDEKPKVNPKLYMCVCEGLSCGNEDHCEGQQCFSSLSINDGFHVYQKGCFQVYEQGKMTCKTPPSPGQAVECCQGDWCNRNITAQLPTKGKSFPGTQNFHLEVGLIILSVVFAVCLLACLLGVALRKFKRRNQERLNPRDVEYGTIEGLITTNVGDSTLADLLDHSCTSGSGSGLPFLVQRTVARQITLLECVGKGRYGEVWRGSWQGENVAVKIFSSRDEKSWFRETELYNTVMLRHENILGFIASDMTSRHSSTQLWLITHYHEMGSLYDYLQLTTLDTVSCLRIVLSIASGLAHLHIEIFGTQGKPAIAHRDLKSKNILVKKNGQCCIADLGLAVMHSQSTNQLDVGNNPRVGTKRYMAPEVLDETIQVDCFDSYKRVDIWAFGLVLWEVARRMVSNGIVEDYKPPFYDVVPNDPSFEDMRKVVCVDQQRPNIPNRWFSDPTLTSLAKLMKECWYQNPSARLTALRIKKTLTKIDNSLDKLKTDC

TESK1 = TESK1 (Homo sapiens, UniProt Q15569)
Chain of TESK1 (Q15569 whole entry): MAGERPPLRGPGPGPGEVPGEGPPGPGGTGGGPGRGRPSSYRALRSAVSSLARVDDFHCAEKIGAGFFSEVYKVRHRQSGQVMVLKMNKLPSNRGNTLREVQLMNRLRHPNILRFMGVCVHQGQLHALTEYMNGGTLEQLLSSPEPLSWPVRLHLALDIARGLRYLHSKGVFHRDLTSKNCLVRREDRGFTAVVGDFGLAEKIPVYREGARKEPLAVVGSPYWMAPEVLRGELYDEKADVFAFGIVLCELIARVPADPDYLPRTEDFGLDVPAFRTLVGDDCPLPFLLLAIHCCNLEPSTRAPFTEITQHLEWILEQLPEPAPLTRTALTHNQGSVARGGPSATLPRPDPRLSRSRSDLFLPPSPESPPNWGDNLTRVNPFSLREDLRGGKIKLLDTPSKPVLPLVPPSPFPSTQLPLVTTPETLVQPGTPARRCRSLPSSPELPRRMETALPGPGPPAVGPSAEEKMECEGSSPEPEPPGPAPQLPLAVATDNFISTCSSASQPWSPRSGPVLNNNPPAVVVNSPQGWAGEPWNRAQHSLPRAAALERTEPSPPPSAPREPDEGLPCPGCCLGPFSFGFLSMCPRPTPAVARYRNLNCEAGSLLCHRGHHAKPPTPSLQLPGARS

PRKCE = PRKCE (Homo sapiens, UniProt Q02156)
Chain of PRKCE (Q02156 whole entry): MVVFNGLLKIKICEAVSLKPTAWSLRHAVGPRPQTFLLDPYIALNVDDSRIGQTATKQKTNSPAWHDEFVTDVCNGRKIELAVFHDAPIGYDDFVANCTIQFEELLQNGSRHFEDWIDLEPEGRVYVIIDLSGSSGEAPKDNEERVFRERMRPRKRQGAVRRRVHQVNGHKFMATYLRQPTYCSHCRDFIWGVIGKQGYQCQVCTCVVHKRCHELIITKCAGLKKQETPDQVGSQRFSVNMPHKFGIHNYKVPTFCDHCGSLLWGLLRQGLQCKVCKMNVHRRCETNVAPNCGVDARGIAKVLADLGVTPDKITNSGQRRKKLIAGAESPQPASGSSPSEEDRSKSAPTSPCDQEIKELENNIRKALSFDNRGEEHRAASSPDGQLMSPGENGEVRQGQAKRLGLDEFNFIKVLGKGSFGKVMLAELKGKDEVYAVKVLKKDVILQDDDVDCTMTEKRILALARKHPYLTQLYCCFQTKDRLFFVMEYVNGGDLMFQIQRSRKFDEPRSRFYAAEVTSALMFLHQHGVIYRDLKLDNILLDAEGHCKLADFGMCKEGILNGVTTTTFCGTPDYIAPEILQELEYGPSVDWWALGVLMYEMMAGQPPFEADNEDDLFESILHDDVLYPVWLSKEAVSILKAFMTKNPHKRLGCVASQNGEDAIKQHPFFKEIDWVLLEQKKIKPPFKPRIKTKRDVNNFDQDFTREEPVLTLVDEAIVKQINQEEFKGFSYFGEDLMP

MEK1 = target: T3, MEK1 (Homo sapiens, UniProt Q02750)
T3 construct: gene MAP2K1

PIP5K2C = target: T4, PIP5K2C (Homo sapiens, UniProt Q8TBX8)
T4 construct: gene PIP4K2C
T4 sequence (Q8TBX8 whole entry): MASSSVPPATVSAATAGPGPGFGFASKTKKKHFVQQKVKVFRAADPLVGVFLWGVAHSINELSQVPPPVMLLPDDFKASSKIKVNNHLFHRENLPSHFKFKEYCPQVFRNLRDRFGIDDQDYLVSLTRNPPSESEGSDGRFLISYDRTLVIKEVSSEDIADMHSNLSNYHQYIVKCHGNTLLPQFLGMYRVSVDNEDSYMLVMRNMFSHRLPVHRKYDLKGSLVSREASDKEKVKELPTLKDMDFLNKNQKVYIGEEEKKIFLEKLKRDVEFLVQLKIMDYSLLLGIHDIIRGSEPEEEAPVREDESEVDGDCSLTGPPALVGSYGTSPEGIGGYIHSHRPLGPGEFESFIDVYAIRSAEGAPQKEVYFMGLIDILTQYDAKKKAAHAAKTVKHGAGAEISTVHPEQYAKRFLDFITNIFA

PIM3 = PIM3 (Homo sapiens, UniProt Q86V86)
RIPK2 = RIPK2 (Homo sapiens, UniProt O43353)
SYK = SYK (Homo sapiens, UniProt P43405)
EPHA5 = EPHA5 (Homo sapiens, UniProt P54756)
[1] = target: T5, RSK2(Kin.Dom.1-N-terminal) (Homo sapiens, UniProt P51812)
T5 construct: gene RPS6KA3; Kin.Dom.1-N-terminal
T5 sequence (P51812 whole entry): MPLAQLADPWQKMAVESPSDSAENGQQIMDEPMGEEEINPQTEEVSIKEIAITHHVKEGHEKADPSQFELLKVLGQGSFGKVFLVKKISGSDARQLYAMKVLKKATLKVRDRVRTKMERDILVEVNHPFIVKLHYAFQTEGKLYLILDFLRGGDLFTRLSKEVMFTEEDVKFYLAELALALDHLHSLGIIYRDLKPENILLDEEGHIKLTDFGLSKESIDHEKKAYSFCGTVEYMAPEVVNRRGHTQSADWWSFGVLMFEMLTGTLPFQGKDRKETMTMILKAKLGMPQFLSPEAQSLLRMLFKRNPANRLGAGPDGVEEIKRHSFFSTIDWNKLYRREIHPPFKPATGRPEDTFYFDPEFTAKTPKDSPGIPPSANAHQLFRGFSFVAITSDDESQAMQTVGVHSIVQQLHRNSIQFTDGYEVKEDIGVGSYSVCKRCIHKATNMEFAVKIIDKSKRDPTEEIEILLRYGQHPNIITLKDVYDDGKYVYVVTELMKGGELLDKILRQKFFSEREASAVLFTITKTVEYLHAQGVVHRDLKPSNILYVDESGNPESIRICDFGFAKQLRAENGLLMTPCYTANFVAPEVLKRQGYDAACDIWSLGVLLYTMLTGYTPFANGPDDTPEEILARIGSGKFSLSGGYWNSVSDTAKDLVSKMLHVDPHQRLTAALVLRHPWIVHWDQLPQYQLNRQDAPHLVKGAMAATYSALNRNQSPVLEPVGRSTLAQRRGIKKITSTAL

GCN2(Kin.Dom.2,S808G) = target: T6, GCN2(Kin.Dom.2,S808G) (Homo sapiens, UniProt Q9P2K8, S808G)
T6 construct: gene EIF2AK4; Kin.Dom.2

STK16 = STK16 (Homo sapiens, UniProt O75716)
RIPK1 = RIPK1 (Homo sapiens, UniProt Q13546)
RET(V804M) = RET(V804M) (Homo sapiens, UniProt P07949, V804M)
DAPK3 = DAPK3 (Homo sapiens, UniProt O43293)
RIPK4 = RIPK4 (Homo sapiens, UniProt P57078)
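Also: KINOMEscan kinase panel binding assay, signal normalized between DMSO as 100% and a positive control compound as 0%.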

Structure (SMILES): Cc1cnc2nc1Nc1cccc(c1)COCc1cc(ccc1OCCN1CCCC1)N2 [Compound 1]
- remaining binding at 0.1 µM (CDC2L1): 96%
- remaining binding at 0.1 µM (MAPKAPK2): 100%
- remaining binding at 0.1 µM (CLK4): 94%
- remaining binding at 0.1 µM (MEK6): 100%
- remaining binding at 0.1 µM (LIMK1): 88%
- remaining binding at 0.1 µM (AKT1): 100%
- remaining binding at 0.1 µM (BMPR2): 87%
- remaining binding at 0.1 µM (CSF1R): 62%
- remaining binding at 0.1 µM (MAP3K3): 74%
- remaining binding at 0.1 µM (ACVR1): 92%
- remaining binding at 0.1 µM (TESK1): 85%
- remaining binding at 0.1 µM (PRKCE): 98%
- remaining binding at 0.1 µM (MEK1): 77%
- remaining binding at 0.1 µM (PIP5K2C): 76%
- remaining binding at 0.1 µM (PIM3): 100%
- remaining binding at 0.1 µM (RIPK2): 99%
- remaining binding at 0.1 µM (SYK): 99%
- remaining binding at 0.1 µM (EPHA5): 100%
- remaining binding at 0.1 µM [1]: 56%
- remaining binding at 0.1 µM (GCN2(Kin.Dom.2,S808G)): 38%
- remaining binding at 0.1 µM (STK16): 18%
- remaining binding at 0.1 µM (RIPK1): 93%
- remaining binding at 0.1 µM (RET(V804M)): 80%
- remaining binding at 0.1 µM (DAPK3): 94%
- remaining binding at 0.1 µM (RIPK4): 65%
